In patent publication US10308644B2, “Heterocyclic compounds as immunomodulators” (Incyte Corporation, priority 2016, dated 2019):

Molecular target: PD-1/PD-L1 (Homo sapiens (Human), UniProt Q9NZQ7)
Assay: PD-1/PD-L1 Homogeneous Time-Resolved Fluorescence (HTRF) Binding Assay
Details: recombinant human PD-1 (3 nM) and PD-L1 (10 nM), 25° C., PBS pH 7.4
How it was run: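 Fc-tagged human PD-1 (25-167, 3 nM) and His-tagged PD-L1 (19-238, 10 nM) preincubated with inhibitor 40 min in PBS pH 7.4, 0.05% Tween-20, 0.1% BSA, 1% DMSO, 25 °C. Binding detected by HTRF (Eu anti-IgG/APC anti-His, 665/620 nm) after 60 min; IC50 from percent control activity.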

PD-1/PD-L1, sequence (Q9NZQ7 19-238): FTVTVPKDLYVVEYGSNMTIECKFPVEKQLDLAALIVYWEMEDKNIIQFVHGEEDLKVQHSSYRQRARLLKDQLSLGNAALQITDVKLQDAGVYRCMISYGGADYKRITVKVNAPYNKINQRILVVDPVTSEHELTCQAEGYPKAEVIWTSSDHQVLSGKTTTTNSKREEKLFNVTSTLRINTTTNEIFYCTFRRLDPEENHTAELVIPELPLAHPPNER

| IC50 | SMILES |
| --- | --- |
| ≤ 10 nM | Cc1c(-c2nc3cc(CN4CC[C@@](C)(C(=O)O)C4)cc(C#N)c3o2)cccc1-c1cccc(-c2nc3c(s2)CN(C(=O)CN(C)[C@H](C)CO)C3)c1C [Example 225, (R)-1-((7-cyano-2-(3′-(5-(2-(((R)-1-hydroxypropan-2-yl)(methyl)amino)acetyl)-5,6-dihydro-4H-pyrrolo[3,4-d]thiazol-2-yl)-2,2′-dimethylbiphenyl-3-yl)benzo[d]oxazol-5-yl)methyl)-3-methylpyrrolidine-3-carboxylic acid] |
| ≤ 10 nM | Cc1c(-c2nc3cc(CN4CC[C@@](C)(C(=O)O)C4)cc(C#N)c3o2)cccc1-c1cccc(-c2nc3c(s2)CN(C(=O)CN(C)[C@@H](C)CO)C3)c1C [Example 226, (R)-1-((7-cyano-2-(3′-(5-(2-(((S)-1-hydroxypropan-2-yl)(methyl)amino)acetyl)-5,6-dihydro-4H-pyrrolo[3,4-d]thiazol-2-yl)-2,2′-dimethylbiphenyl-3-yl)benzo[d]oxazol-5-yl)methyl)-3-methylpyrrolidine-3-carboxylic acid] |
| ≤ 10 nM | Cc1c(-c2nc3cc(CN4CC5(CC(C(=O)O)C5)C4)cc(C#N)c3o2)cccc1-c1cccc(-c2nc3c(s2)CN(C(=O)CN(C)CCO)C3)c1C [Example 230, 2-((7-cyano-2-(3′-(5-(2-((2-hydroxyethyl)(methyl)amino)acetyl)-5,6-dihydro-4H-pyrrolo[3,4-d]thiazol-2-yl)-2,2′-dimethylbiphenyl-3-yl)benzo[d]oxazol-5-yl)methyl)-2-azaspiro[3.3]heptane-6-carboxylic acid] |
| ≤ 10 nM | Cc1c(-c2nc3cc(CN4CC5(CC(C(=O)O)C5)C4)cc(C#N)c3o2)cccc1-c1cccc(-c2nc3c(s2)CN(C(=O)CN(C)[C@H](C)CO)C3)c1C [Example 231, 2-((7-cyano-2-(3′-(5-(2-(((R)-1-hydroxypropan-2-yl)(methyl)amino)acetyl)-5,6-dihydro-4H-pyrrolo[3,4-d]thiazol-2-yl)-2,2′-dimethylbiphenyl-3-yl)benzo[d]oxazol-5-yl)methyl)-2-azaspiro[3.3]heptane-6-carboxylic acid] |

Further lines, the compound ahead of its results:

| SMILES | IC50 |
| --- | --- |
| Cc1c(-c2nc3cc(CN4CC[C@@](C)(C(=O)O)C4)cc(C#N)c3o2)cccc1-c1cccc(-c2nc3c(s2)CN(C(=O)CN(C)CCO)C3)c1C [Example 224, (R)-1-((7-cyano-2-(3′-(5-(2-((2-hydroxyethyl) (methyl)amino)acetyl)-5,6-dihydro-4H-pyrrolo[3,4-d]thiazol-2-yl)-2,2′-dimethylbiphenyl-3-yl)benzo[d]oxazol-5-yl)methyl)-3-methylpyrrolidine-3-carboxylic acid] | ≤ 10 nM |
| Cc1c(-c2nc3cc(CN4CC[C@@](C)(C(=O)O)C4)cc(C#N)c3o2)cccc1-c1cccc(-c2nc3c(s2)CN(C(=O)CN2CC(O)C2)C3)c1C [Example 227, (R)-1-((7-cyano-2-(3′-(5-(2-(3-hydroxyazetidin-1-yl)acetyl)-5,6-dihydro-4H-pyrrolo[3,4-d]thiazol-2-yl)-2,2′-dimethylbiphenyl-3-yl)benzo[d]oxazol-5-yl)methyl)-3-methylpyrrolidine-3-carboxylic acid] | ≤ 10 nM |
| Cc1c(-c2nc3cc(CN4CC[C@@](C)(C(=O)O)C4)cc(C#N)c3o2)cccc1-c1cccc(-c2nc3c(s2)CN(C(=O)CN[C@H]2C[C@@H](O)C2)C3)c1C [Example 228, (R)-1-((7-cyano-2-(3′-(5-(2-(cis-3-hydroxycyclobutylamino)acetyl)-5,6-dihydro-4H-pyrrolo[3,4-d]thiazol-2-yl)-2,2′-dimethylbiphenyl-3-yl)benzo[d]oxazol-5-yl)methyl)-3-methylpyrrolidine-3-carboxylic acid] | ≤ 10 nM |
| Cc1c(-c2nc3cc(CN4CC[C@@](C)(C(=O)O)C4)cc(C#N)c3o2)cccc1-c1cccc(-c2nc3c(s2)CN(C(=O)CN[C@H]2C[C@H](O)C2)C3)c1C [Example 229, (R)-1-((7-cyano-2-(3′-(5-(2-(trans-3-hydroxycyclobutylamino)acetyl)-5,6-dihydro-4H-pyrrolo[3,4-d]thiazol-2-yl)-2,2′-dimethylbiphenyl-3-yl)benzo[d]oxazol-5-yl)methyl)-3-methylpyrrolidine-3-carboxylic acid] | ≤ 10 nM |
